Our source for the EC50 values is US20160347813A1, “GLUCAGON ANALOGUES” (Zealand Pharma A/S, priority 2011, published 2016).

One test addresses T1, human GLP-1-R (Homo sapiens, UniProt P43220).
T1 construct: The DNA encoding the Glucagon-R or the GLP-1-R was amplified by PCR using primers encoding terminal restriction sites for subcloning; expressed in transfected cells
Nature of the test: GLP-1 receptor efficacy assay (cAMP generation in HEK293 cells). The note with it: cAMP generation in HEK293 cells expressing GLP-1 receptor. It is filed as cell-based. An excerpt:
(§1) The DNA encoding the Glucagon-R or the GLP-1-R was amplified by PCR using primers encoding terminal restriction sites for subcloning. The 5′-end primers additionally encoded a near Kozak consensus sequence to ensure efficient translation. The fidelity of the DNA encoding the Glucagon-R and the GLP-1-R was confirmed by DNA sequencing. The PCR products encoding the Glucagon-R or the GLP-1-R were subcloned into a mammalian expression vector containing a neomycin (G418) resistance marker. The mammalian expression vectors encoding the Glucagon-R or the GLP-1-R were transfected into HEK293 cells by a standard calcium phosphate transfection method. 48 hr after transfection cells were seeded for limited dilution cloning and selected with 1 mg/ml G418 in the culture medium. Three weeks later 12 surviving colonies of Glucagon-R and GLP-1-R expressing cells were picked, propagated and tested in the Glucagon-R and GLP-1-R efficacy assays as described below. One Glucagon-R expressing clone and one GLP-1-R expressing clone were chosen for compound profiling.
(§2) On the day of analysis, growth medium was removed and the cells washed once with 200 μl Tyrode buffer. Cells were incubated in 100 μl Tyrode buffer containing increasing concentrations of test peptides, 100 μM IBMX, and 6 mM glucose for up 15 min at 37° C. The reaction was stopped by addition of 25 μl 0.5 M HCl and incubated on ice for 60 min. The cAMP content was estimated using the FlashPlate® cAMP kit from Perkin-Elmer according to manufacturer instructions. EC50 and relative efficacies compared to reference compounds (glucagon and GLP-1) were estimated by computer aided curve fitting.

For another test, the target named is T2, human Glucagon-R (Homo sapiens, UniProt P47871).
T2 construct: The DNA encoding the Glucagon-R or the GLP-1-R was amplified by PCR using primers encoding terminal restriction sites for subcloning; expressed in transfected cells
Nature of the test: Glucagon receptor efficacy assay (cAMP generation in HEK293 cells). Format: cell-based. To be noted: cAMP generation in HEK293 cells expressing Glucagon receptor.
Excerpt: as §1, §2

Residues, ends and D or L forms follow the SMILES beside them.

T2 sequence (P47871 26-477): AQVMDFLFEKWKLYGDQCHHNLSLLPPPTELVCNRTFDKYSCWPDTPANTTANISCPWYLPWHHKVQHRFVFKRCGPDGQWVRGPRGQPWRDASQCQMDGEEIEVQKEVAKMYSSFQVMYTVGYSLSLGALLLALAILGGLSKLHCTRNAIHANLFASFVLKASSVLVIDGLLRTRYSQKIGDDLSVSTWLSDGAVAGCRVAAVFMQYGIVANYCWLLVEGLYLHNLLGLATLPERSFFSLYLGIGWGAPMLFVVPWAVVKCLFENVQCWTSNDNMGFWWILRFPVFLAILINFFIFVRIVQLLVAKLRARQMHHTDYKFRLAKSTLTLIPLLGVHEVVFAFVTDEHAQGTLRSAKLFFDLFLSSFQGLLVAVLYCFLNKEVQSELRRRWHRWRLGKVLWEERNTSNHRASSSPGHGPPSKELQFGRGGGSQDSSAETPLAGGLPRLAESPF
T1 sequence (P43220 24-463): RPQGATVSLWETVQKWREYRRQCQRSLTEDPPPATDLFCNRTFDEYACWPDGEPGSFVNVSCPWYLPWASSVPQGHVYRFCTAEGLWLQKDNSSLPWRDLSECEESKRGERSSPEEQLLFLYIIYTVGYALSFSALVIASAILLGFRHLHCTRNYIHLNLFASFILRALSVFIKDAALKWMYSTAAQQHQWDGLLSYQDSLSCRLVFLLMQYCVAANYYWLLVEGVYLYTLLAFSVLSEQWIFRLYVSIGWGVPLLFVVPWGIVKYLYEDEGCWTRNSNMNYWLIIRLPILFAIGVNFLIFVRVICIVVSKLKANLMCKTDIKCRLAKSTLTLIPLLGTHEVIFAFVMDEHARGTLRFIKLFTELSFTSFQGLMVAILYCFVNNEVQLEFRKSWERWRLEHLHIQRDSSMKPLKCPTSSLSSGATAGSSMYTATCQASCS

Consider `CCCCCCCCCCCCCCCC(=O)N[C@@H](CCC(=O)NCCCC[C@H](NC(=O)[C@H](CCC(=O)O)NC(=O)[C@H](CC(=O)O)NC(=O)[C@H](CC(C)C)NC(=O)[C@H](Cc1ccc(O)cc1)NC(=O)[C@H](CCCNC(=N)N)NC(=O)[C@H](CO)NC(=O)[C@H](Cc1ccc(O)cc1)NC(=O)[C@H](CC(=O)O)NC(=O)[C@H](CO)NC(=O)[C@@H](NC(=O)[C@H](Cc1ccccc1)NC(=O)[C@@H](NC(=O)CNC(=O)[C@H](CCC(N)=O)NC(=O)[C@H](CO)NC(=O)[C@@H](N)Cc1c[nH]cn1)[C@@H](C)O)[C@@H](C)O)C(=O)N[C@@H](CCCNC(=N)N)C(=O)N[C@@H](C)C(=O)N[C@@H](CCCNC(=N)N)C(=O)N[C@@H](CC(=O)O)C(=O)N[C@@H](Cc1ccccc1)C(=O)N[C@H](C(=O)N[C@@H](CCC(=O)O)C(=O)N[C@@H](Cc1c[nH]c2ccccc12)C(=O)N[C@@H](CC(C)C)C(=O)N[C@@H](CC(C)C)C(=O)N[C@@H](CO)C(=O)N[C@@H](C)C(N)=O)[C@@H](C)CC)C(=O)O` [Compound 7] (HELM PEPTIDE1{H.S.Q.G.T.F.T.S.D.Y.S.R.Y.L.D.E.K.R.A.R.D.F.I.E.W.L.L.S.A.[am]}|PEPTIDE2{[CCCCCCCCCCCCCCCC(=O)[*:2]].[gGlu]}$PEPTIDE1,PEPTIDE2,17:R3-2:R2$$$V2.0), for which the EC50 at human GLP-1-R and at human Glucagon-R was 0.06 nM each time. Turning to `CCCCCCCCCCCCCCCC(=O)N[C@@H](CCC(=O)NCCCC[C@H](NC(=O)[C@H](CCC(=O)O)NC(=O)[C@H](CC(=O)O)NC(=O)[C@H](CC(C)C)NC(=O)[C@H](Cc1ccc(O)cc1)NC(=O)[C@H](CCCNC(=N)N)NC(=O)[C@H](CO)NC(=O)[C@H](Cc1ccc(O)cc1)NC(=O)[C@H](CC(=O)O)NC(=O)[C@H](CO)NC(=O)[C@@H](NC(=O)[C@H](Cc1ccccc1)NC(=O)[C@@H](NC(=O)CNC(=O)[C@H](Cc1c[nH]cn1)NC(=O)[C@@H](CO)NC(=O)[C@@H](N)Cc1c[nH]cn1)[C@@H](C)O)[C@@H](C)O)C(=O)N[C@@H](CCCNC(=N)N)C(=O)N[C@@H](C)C(=O)N[C@@H](CCCNC(=N)N)C(=O)N[C@@H](CC(=O)O)C(=O)N[C@@H](Cc1ccccc1)C(=O)N[C@H](C(=O)N[C@@H](CCC(=O)O)C(=O)N[C@@H](Cc1c[nH]c2ccccc12)C(=O)N[C@@H](CC(C)C)C(=O)N[C@@H](CC(C)C)C(=O)N[C@@H](CO)C(=O)N[C@@H](C)C(N)=O)[C@@H](C)CC)C(=O)O` [Compound 11] (HELM PEPTIDE1{H.[dS].H.G.T.F.T.S.D.Y.S.R.Y.L.D.E.K.R.A.R.D.F.I.E.W.L.L.S.A.[am]}|PEPTIDE2{[CCCCCCCCCCCCCCCC(=O)[*:2]].[gGlu]}$PEPTIDE1,PEPTIDE2,17:R3-2:R2$$$V2.0), at human Glucagon-R, the EC50 (in general, the concentration giving half of the maximal effect) came to 0.09 nM.

As to `CCCCCCCCCCCCCCCC(=O)N[C@@H](CCC(=O)NCCCC[C@H](NC(=O)[C@H](CCC(=O)O)NC(=O)[C@H](CC(=O)O)NC(=O)[C@H](CC(C)C)NC(=O)[C@H](Cc1ccc(O)cc1)NC(=O)[C@H](CCCCN)NC(=O)[C@H](CO)NC(=O)[C@H](Cc1ccc(O)cc1)NC(=O)[C@H](CC(=O)O)NC(=O)[C@H](CO)NC(=O)[C@@H](NC(=O)[C@H](Cc1ccccc1)NC(=O)[C@@H](NC(=O)CNC(=O)[C@H](Cc1c[nH]cn1)NC(=O)[C@H](CO)NC(=O)[C@@H](N)Cc1c[nH]cn1)[C@@H](C)O)[C@@H](C)O)C(=O)N[C@@H](CCCNC(=N)N)C(=O)N[C@@H](C)C(=O)N[C@@H](CCCCN)C(=O)N[C@@H](CC(=O)O)C(=O)N[C@@H](Cc1ccccc1)C(=O)N[C@H](C(=O)N[C@@H](CCC(=O)O)C(=O)N[C@@H](Cc1c[nH]c2ccccc12)C(=O)N[C@@H](CC(C)C)C(=O)N[C@@H](CC(C)C)C(=O)N[C@@H](CO)C(=O)N[C@@H](C)C(N)=O)[C@@H](C)CC)C(=O)O` [Compound 18] (HELM PEPTIDE1{H.S.H.G.T.F.T.S.D.Y.S.K.Y.L.D.E.K.R.A.K.D.F.I.E.W.L.L.S.A.[am]}|PEPTIDE2{[CCCCCCCCCCCCCCCC(=O)[*:2]].[gGlu]}$PEPTIDE1,PEPTIDE2,17:R3-2:R2$$$V2.0), on human Glucagon-R, a half-maximal effect (EC50) was put at 0.09 nM.
